In patent US8409859B2, “Differentiation of non-embryonic stem cells to cells having a pancreatic phenotype” (Regents of the University of Minnesota, priority 2005, dated 2013):

Experiments:
[1] = test system: rat MAPCs; assay: Cytokine mediated differentiation of rat MAPCs, Q-RT-PCR and cell survival; type: cell-based; conditions: activin-A, BMP4 and cyclopamine or anti-SHH Ab withdrawn after d6, cells then maintained with the factor
Method: For Q-RT-PCR reactions described herein, the primer sequences are presented in Tables 3-5 and the following protocols were used: RNA was extracted from the cells with the aid of the RNeasy Mini Kit (Qiagen; Valencia Calif.), followed by a DNase Treatment with DNA-Free™ (Ambion, Austin, Tex.). The RNA was reverse transcribed with TaqMan (Applied Biosystems, Foster City, Calif.; Step 1 (Incubation): 25° C., 10 min; Step 2 (RT): 48° C., 30 min; Step 3 (RT Inactivation): 95° C., 10 min).
Following reverse transcription, Quantitative Real Time PCR (Q-RT-PCR) was performed as follows: Step 1: 50° C., 2 min (Incubation); Step 2: 95° C., 10 min (Taq activation); Step 3: 95° C., 15 sec (Denaturation) followed by 60° C., 1 min (Extension) and repeat for 40 cycles; Step 4: 95° C., 15 sec (Dissociation); Step 5: 60° C., 20 sec (Melting curve); Step 6: 95° C., 15 sec.
In an initial series of studies, the effect of cell density (about 10^4-10^5 cells/cm^2), ECM component (fibronectin, collagen, matrigel) and different concentrations (10-100 ng/mL) of bFGF (10-100 ng/mL), FGF2 (10-100 ng/mL), Activin A (e.g., about 10 ng/mL to about 100 ng/mL), BMP4 (e.g., about 10 ng/mL to about 50 ng/mL), retinoic acid (about 10^−6M), EGF (e.g., about 10 to about 100 ng/mL), FGF10 (e.g., about 50 to about 150 ng/mL, including about 100 ng/mL), HGF (e.g., about 10 to about 100 ng/mL), GDF11 (e.g., about 50 to abut 150 ng/mL), cyclopamine (e.g., about 10 μM), anti-SHH antibody (Ab; e.g., about 10 μg/mL), nicotinamide (e.g., 5 μM to about 50 μM, including about 10 μM), exendin 4 (about 5 nM to about 50 nM, including about 10 nM), betacellulin (e.g., about 50 to abut 150 ng/mL) alone or in combinations of 2 or 3 and in different temporal sequences, on the induction of transcription factors, insulin, glucagon and somatostatin expression levels after 6, 12 and 18 days using Q-RT-PCR was determined.
Subsequent addition of factors believed to play a role in further proliferation and differentiation from pancreas-committed cells to mature endocrine pancreas, including EGF (e.g., about 50 ng/mL), HGF (e.g., about 50 ng/mL) and FGF10 (e.g., about 100 ng/mL), either alone or in combination was tested. […] Further optimization was obtained by adjusting the duration of the different steps along the differentiation course, as well addition of β-cellulin (50 ng/mL).

[2] = test system: murine MAPCs; conditions: about 10 ng/mL LIF added to PDGF-BB and EGF culture; cited from earlier work
[3] = test system: human MAPCs; conditions: about 10 ng/mL LIF; cited from earlier work

Substance | cell survival [1] | cell growth [2] | short-term cell growth (cell doubling time till 25 cell doublings, Oct 4 expression) [3]
EGF: epidermal growth factor | significantly better |  | 
HGF: mitogenic protein used at about 50 ng/mL | significantly better |  | 
LIF: leukemia inhibitory factor, culture supplement |  | significantly enhanced cell growth | did not affect short-term cell growth
